Laboratory results: US20220106328A1, “HETEROCYCLIC COMPOUNDS” (Hoffmann-La Roche Inc., priority 2019, published 2022)

Target: T1, MAGL (Homo sapiens, UniProt Q99685)
T1 sequence (Q99685 1-303): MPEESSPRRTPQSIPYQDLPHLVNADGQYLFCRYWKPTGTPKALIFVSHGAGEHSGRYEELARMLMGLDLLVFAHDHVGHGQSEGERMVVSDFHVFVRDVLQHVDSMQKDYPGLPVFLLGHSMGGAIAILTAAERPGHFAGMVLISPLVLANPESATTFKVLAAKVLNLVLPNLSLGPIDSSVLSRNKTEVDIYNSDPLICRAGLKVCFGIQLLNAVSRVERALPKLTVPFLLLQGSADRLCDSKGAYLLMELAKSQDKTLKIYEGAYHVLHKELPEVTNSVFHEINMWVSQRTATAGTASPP
Test: 2-AG assay (MAGL inhibitory activity; hydrolysis of 2-arachidonoylglycerol to arachidonic acid followed by mass spectrometry)
Format: biochemical
Settings: 8 μM 2-arachidonoylglycerol, 15 min pre-incubation, 30 min incubation at rt, RapidFire MS read-out
Procedure: Compounds were profiled for MAGL inhibitory activity by determining the enzymatic activity by following the hydrolysis of the natural substrate 2-arachidonoylglycerol resulting in arachidonic acid, which can be followed by mass spectrometry. This assay is hereinafter abbreviated “2-AG assay”.
A C18 SPE cartridge (G9205A) was used in an ACN/water liquid setup. […] The activity of the compounds was calculated based on the ratio of intensities [arachidonic acid/d8-arachidonic acid].

Structure (SMILES) | IC50
O=C1CO[C@@H]2CCN(C(=O)N3CCC4(CC3)CC(Oc3ccc(C(F)(F)F)cc3F)C4)C[C@H]2N1 (single isomer, unassigned) [Example 26, (+)- or (−)-trans-6-[2-[2-Fluoro-4-(trifluoromethyl)phenoxy]-7-azaspiro[3.5]nonane-7-carbonyl]-4,4a,5,7,8,8a-hexahydropyrido[4,3-b][1,4]oxazin-3-one] | 118 nM
O=C1CO[C@H]2CCN(C(=O)N3CCC4(CC3)CC(Oc3ccc(C(F)(F)F)cc3F)C4)C[C@@H]2N1 (single isomer, unassigned) [Example 27, (−)- or (+)-trans-6-[2-[2-Fluoro-4-(trifluoromethyl)phenoxy]-7-azaspiro[3.5]nonane-7-carbonyl]-4,4a,5,7,8,8a-hexahydropyrido[4,3-b][1,4]oxazin-3-one] | 7 nM
O=C1CO[C@@H]2CCN(C(=O)N3CCC(Cc4ccc(C(F)(F)F)cc4)CC3)C[C@H]2N1 (single isomer, unassigned) [Example 28, (+)- or (−)-trans-6-[4-[[4-(Trifluoromethyl)phenyl]methyl]piperidine-1-carbonyl]-4,4a,5,7,8,8a-hexahydropyrido[4,3-b][1,4]oxazin-3-one] | 2560 nM
O=C1CO[C@H]2CCN(C(=O)N3CCC(Cc4ccc(C(F)(F)F)cc4)CC3)C[C@@H]2N1 (single isomer, unassigned) [Example 29, (−)- or (+)-trans-6-[4-[[4-(Trifluoromethyl)phenyl]methyl]piperidine-1-carbonyl]-4,4a,5,7,8,8a-hexahydropyrido[4,3-b][1,4]oxazin-3-one] | 1300 nM
O=C1CO[C@H]2CCN(C(=O)N3CCC(c4cn(CCO)c5ccc(Cl)cc45)CC3)C[C@@H]2N1 (single isomer, unassigned) [Example 30, (−)- or (+)-trans-6-[4-[5-Chloro-1-(2-hydroxyethyl)indol-3-yl]piperidine-1-carbonyl]-4,4a,5,7,8,8a-hexahydropyrido[4,3-b][1,4]oxazin-3-one] | 530 nM
